Holding throughout (assay type): biochemical
Experiment [1] addresses T1, RET wt (Homo sapiens, UniProt P07949).
T1 construct: purchased Carna 08-159
The experiment is described as follows: In vitro kinase activity assay (mobility shift assay), RET wild type. Particulars: ATP 16 μM, reaction time 60 min. The method in brief: (§1)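 Compounds: 10-point 3-fold series starting 1000 nM, preincubated 10 min RT with kinase; ATP + substrate then added, 30-240 min RT. Caliper conversion read, normalised to no-enzyme and no-compound controls, dose-response fit gives IC50.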

For experiment [2], the target named is T2, TRKa (Homo sapiens, UniProt P04629).
T2 construct: purchased Carna 08-186
Nature of the experiment: In vitro kinase activity assay (mobility shift assay), TRKa. Particulars: ATP 47.8 μM, reaction time 30 min. How it is done:
(§2) The IC50 (half inhibitory concentration) values of the compounds were used as an indicator to evaluate the inhibitory effect of the compound on RET wild-type, RET mutant, TRKa, SRC, BTK and/or mutated BTK kinase.
(§3) Using the method of Mobility shift assay, the compounds were tested for inhibitory activity against the following kinases: RET wild type, RET mutant, TRKa, SRC, BTK and/or mutated BTK. The initial concentration of the test compound was 1000 nM, 3-fold dilution, 10 concentrations, detected in a well for each concentration.
(§4) 20 mM hydroxyethylpiperazineethanesulfonic acid (Hepes) (pH 7.5) buffer, 10 mM MgCl2, 1 mM ethylene glycol bis(aminoethyl ether)tetraacetic acid (EGTA), 0.02% polyoxyethylene lauryl ether (Brij35), 0.02 mg/ml […] (BSA), 0.1 mM Na3VO4, 2 mM dithiothreitol (DTT), 1% DMSO.
(§5) The test compounds were dissolved in 100% dimethyl sulfoxide (DMSO) system, and prepared as 10 mM for use, and stored in a nitrogen cabinet away from light.
(§6) • (1) Preparing 1× kinase reaction buffer. • (2) Preparation of compound concentration gradient: the initial concentration of the compounds was 1000 nM, which was diluted as 100-fold final concentration of solution in 100% dimethyl sulfoxide (DMSO) in a 384-well plate. The compound was accurately 3-fold diluted with the kinase buffer solution, 10 concentrations in total, and the final concentration was 0.0508 nM. The 100-fold final concentration of solution in 100% dimethyl sulfoxide (DMSO) was obtained by dilution in 384 source plate. The liquid separator Echo 550 was used to transfer 250 nl of 100-fold final concentration of compound to the target 384 well plate. 250 nl of DMSO was added to the positive and negative control wells. • (3) 2.5-fold final concentration of kinase solution was prepared by the 1× kinase buffer. • (4) 10 4, of 2.5-fold final concentration of kinase solution was added to the compound well and the positive control well, respectively; 10 4, of 1× kinase buffer was added to the negative control well. • (5) After centrifuging at 1000 rpm for 30 second, the reaction plate was shaken and mixed, followed by incubation at room temperature for 10 min. • (6) a mixed solution of 25/15-fold final concentration of adenosine triphosphate (ATP) and kinase substrate was prepared by 1× kinase buffer. • (7) The mixed solution (15 μL) of 25/15-fold final concentration of adenosine triphosphate (ATP) and substrate was added to initiate the reaction. • (8) 384-well plate was centrifuged at 1000 rpm for 30 second, shaken and mixed well, and then incubated at room temperature for 30-240 min. • (9) After stopping the kinase reaction, the plate was centrifugated at 1000 rpm for 30 second, shaken and mixed well. • (10)The conversion rate was read with Caliper EZ Reader.
(§7) wherein Conversion%_sample is the conversion rate reading of the sample; Conversion%_min: the mean value of negative control wells, representing the conversion rate reading of wells without enzymes; Conversion%_max: the mean value of positive control wells, representing the conversion rate reading of wells without compound inhibition.
(§8) The log value of concentration was taken as the X axis, and the percentage inhibition rate was taken as the Y axis. Graphpad 6.0 analysis software was used to fit the dose-response curve, so as to obtain the IC50 value of each compound on the enzyme activity

In experiment [3] the target is T3, BTK (Homo sapiens, UniProt Q06187).
T3 construct: purchased Carna 08-180
The experiment is described as follows: In vitro kinase activity assay (mobility shift assay), BTK. Conditions: ATP 71 μM, reaction time 30 min. An outline of the steps:
as §1

In experiment [4] the target is T4, BTK C481S (Homo sapiens, UniProt Q06187, C481S).
T4 construct: purchased Carna 08-547
Nature of the experiment: In vitro kinase activity assay (mobility shift assay), BTK C481S. Particulars: ATP 90 μM, reaction time 30 min. How it is done: as §2, §3, §4, §5, §6, §7, §8

Experiment [5] addresses T5, RET G810R (Homo sapiens, UniProt P07949, G810R).
T5 construct: purchased Proqinase 1724-0000-1
The experiment is described as follows: In vitro kinase activity assay (mobility shift assay), RET G810R. Conditions: ATP 201 μM, reaction time 4 h. The method in brief:
as §1

Experiment [6] concerns the target T6, RET V804M (Homo sapiens, UniProt P07949, V804M).
T6 construct: purchased signalchem R02-12GG
The experiment is described as follows: In vitro kinase activity assay (mobility shift assay), RET V804M. Particulars: ATP 5.4 μM, reaction time 60 min. An outline of the steps: as §1

In experiment [7] the target is T7, SRC (Homo sapiens, UniProt P12931).
T7 construct: purchased Carna 08-173
Nature of the experiment: In vitro kinase activity assay (mobility shift assay), SRC. Particulars: ATP 19 μM, reaction time 30 min. How it is done: as §2, §3, §4, §5, §6, §7, §8

Experimental findings from patent publication US20230219978A1, “COMPOUND HAVING MACROCYCLIC STRUCTURE AND USE THEREOF” (SCINNOHUB PHARMACEUTICAL CO., LTD, priority 2020, published 2023) are described below.

T6 sequence (P07949 29-1114 V804M): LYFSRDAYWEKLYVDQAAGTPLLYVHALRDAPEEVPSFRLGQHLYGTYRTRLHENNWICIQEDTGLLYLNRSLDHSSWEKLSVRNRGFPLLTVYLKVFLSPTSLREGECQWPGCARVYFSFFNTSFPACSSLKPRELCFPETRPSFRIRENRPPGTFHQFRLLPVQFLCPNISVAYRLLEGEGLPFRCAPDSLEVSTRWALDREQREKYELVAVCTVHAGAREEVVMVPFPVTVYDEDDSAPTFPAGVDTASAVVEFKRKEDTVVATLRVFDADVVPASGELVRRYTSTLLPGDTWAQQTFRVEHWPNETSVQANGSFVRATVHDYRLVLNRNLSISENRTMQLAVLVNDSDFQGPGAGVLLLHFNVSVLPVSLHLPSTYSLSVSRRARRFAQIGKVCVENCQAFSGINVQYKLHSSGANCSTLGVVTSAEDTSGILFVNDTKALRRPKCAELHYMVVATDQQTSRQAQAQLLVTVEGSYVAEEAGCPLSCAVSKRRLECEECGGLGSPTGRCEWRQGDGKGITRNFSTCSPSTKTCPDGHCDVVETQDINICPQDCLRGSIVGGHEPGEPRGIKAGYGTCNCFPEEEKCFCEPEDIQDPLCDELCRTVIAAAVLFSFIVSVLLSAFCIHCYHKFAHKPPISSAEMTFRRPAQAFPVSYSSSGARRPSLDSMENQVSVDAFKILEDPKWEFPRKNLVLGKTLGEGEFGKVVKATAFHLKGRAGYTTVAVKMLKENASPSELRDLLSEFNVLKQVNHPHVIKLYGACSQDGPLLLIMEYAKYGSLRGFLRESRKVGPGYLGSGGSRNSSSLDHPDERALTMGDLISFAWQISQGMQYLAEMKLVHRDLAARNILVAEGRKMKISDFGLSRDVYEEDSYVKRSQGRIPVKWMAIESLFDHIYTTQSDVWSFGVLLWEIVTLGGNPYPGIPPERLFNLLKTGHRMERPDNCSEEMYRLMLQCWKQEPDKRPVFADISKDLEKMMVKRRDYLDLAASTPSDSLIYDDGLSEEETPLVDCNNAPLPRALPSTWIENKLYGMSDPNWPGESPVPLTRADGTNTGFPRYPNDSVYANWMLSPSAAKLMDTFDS
T7 sequence (P12931 whole entry): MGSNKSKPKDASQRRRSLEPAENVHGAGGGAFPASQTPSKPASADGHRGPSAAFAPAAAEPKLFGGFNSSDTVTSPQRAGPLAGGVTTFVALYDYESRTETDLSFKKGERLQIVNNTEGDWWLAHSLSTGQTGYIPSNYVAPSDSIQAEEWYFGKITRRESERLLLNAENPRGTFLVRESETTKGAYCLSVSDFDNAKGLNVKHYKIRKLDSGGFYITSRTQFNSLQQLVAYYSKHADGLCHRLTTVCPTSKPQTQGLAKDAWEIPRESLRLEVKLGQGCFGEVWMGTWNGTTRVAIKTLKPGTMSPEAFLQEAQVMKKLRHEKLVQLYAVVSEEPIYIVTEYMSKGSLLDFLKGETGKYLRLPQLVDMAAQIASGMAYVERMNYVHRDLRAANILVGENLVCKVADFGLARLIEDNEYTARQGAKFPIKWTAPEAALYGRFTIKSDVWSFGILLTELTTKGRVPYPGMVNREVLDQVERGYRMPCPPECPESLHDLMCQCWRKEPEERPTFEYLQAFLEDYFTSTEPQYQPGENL
T4 sequence (Q06187 whole entry C481S): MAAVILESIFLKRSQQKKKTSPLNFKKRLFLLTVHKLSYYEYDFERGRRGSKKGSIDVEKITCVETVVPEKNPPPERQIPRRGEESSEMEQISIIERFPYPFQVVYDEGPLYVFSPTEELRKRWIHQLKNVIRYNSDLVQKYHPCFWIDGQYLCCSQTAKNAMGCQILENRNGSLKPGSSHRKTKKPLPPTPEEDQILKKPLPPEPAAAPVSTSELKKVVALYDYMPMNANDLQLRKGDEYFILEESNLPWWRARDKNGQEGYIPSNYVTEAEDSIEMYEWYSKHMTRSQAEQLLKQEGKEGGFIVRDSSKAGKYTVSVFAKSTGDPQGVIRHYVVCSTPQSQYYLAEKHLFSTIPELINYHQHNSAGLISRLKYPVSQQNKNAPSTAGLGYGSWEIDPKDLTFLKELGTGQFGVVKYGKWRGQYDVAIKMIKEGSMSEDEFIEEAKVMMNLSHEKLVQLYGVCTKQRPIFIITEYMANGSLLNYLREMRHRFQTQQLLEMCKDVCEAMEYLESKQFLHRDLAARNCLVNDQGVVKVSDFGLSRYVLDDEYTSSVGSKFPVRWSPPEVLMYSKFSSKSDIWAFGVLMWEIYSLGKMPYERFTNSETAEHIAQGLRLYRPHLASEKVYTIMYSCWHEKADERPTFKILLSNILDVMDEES
T1 sequence (P07949 29-1114): as the sequence (P07949 29-1114 V804M) above, with M776V counted along it
T3 sequence (Q06187 whole entry): as the sequence (Q06187 whole entry C481S) above, with S481C counted along it
T5 sequence (P07949 29-1114 G810R): as the sequence (P07949 29-1114 V804M) above, with M776V, G782R counted along it
T2 sequence (P04629 33-796): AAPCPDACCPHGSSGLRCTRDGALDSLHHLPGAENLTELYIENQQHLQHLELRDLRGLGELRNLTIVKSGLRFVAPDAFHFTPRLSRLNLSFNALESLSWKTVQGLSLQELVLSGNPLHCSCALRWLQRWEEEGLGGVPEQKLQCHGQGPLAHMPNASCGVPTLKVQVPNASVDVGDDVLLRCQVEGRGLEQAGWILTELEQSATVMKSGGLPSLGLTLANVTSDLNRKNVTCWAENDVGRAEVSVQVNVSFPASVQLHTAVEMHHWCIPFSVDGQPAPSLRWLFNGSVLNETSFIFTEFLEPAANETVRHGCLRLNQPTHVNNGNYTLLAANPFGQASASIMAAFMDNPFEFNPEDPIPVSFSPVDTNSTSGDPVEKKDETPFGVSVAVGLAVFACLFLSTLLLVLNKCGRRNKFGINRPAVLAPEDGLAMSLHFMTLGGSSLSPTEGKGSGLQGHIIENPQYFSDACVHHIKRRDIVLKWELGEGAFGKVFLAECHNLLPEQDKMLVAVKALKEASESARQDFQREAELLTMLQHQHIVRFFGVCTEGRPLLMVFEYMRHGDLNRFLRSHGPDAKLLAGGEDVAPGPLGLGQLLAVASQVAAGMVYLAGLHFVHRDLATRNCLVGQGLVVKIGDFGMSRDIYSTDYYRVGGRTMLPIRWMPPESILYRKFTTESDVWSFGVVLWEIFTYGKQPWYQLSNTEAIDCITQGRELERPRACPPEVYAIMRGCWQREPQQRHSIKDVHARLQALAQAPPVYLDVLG

For the molecule `C[C@H]1CNC(=O)c2cnn3cc(N4CCOCC4)c(nc23)NCc2cc(F)cnc2O1` [Compound 17, (S, 1^3E, 1^4E)-4^5-fluoro-6-methyl-1^6-morpholino-5-oxa-2,8-diaza-1(5,3)-pyrazolo[1,5-a]pyrimidina-4(3,2)-pyridinacyclononaphan-9-one], the IC50 in experiment [1], in experiment [2], in experiment [3] and in experiment [4] was over 10000 nM each time.
Regarding `CC(=O)Nc1ccc(-c2cn3ncc4c3nc2NCc2cc(F)cnc2O[C@@H](C)CNC4=O)cc1` [Compound 18], the IC50 in experiment [1], in experiment [5], in experiment [6], in experiment [7], in experiment [3] and in experiment [4] was over 10000 nM throughout.
Consider `CNC(=O)c1ccc(-c2cn3ncc4c3nc2NCc2cc(F)cnc2O[C@@H](C)CNC4=O)cc1` [Compound 19, 4-((S, 1^3E, 1^4E)-4^5-fluoro-6-methyl-9-oxo-5-oxa-2,8-diaza-1(5,3)-pyrazolo[1,5-a]pyrimidin-4(3,2)-pyridinacyclononaphan-1^6-yl)—N-methylbenz amide], for which the IC50 in experiment [1] was 48.9 nM; in experiment [5], over 10000 nM; in experiment [6], over 10000 nM; in experiment [7], over 10000 nM; in experiment [3], over 10000 nM; in experiment [4], over 10000 nM.
In the case of `C[C@H]1CNC(=O)c2cnn3cc(-c4cnn(C)c4)c(nc23)NCc2cc(F)cnc2O1` [Compound 24], the IC50 in experiment [1] was 20 nM; in experiment [2], over 10000 nM; in experiment [3], 296 nM; in experiment [4], 398 nM.
Consider `COC(=O)Nc1ccc(-c2cn3ncc4c3nc2NCc2cc(F)cnc2O[C@@H](C)CNC4=O)c(Cl)c1` [Compound 27], for which the IC50 in experiment [1] turned out to be 0.629 nM; in experiment [5] it was 17.2 nM; in experiment [6], 3.25 nM; in experiment [7], 38.4 nM; in experiment [3], 15.4 nM; in experiment [4], 16.9 nM.
Consider `C[C@H]1CNC(=O)c2cnn3c(N)c(-c4ccccc4)c(nc23)NCc2cc(F)cnc2O1` [Compound 28, (S, 1^3E, 1^4E)-1^7-amino-4^5-fluoro-6-methyl-1^6-phenyl-5-oxa-2,8-diaza-1(5,3)-pyrazolino[1,5-a]pyrimidin-4(3,2)-pyridinacyclononaphan-9-one], for which the IC50 in experiment [1] came out at 0.359 nM; in experiment [5], 12 nM; in experiment [6] it was 9.18 nM; in experiment [7], 0.456 nM; in experiment [3], 1.11 nM; in experiment [4] it was 0.96 nM.
In the case of `COC(=O)Nc1ccc(-c2cn3ncc4c3nc2NCc2cc(F)cnc2O[C@@H](C)CNC4=O)cc1` [Compound 30, methyl (4-((S, 1^3E, 1^4E)-4^5-fluoro-6-methyl-9-oxo-5-oxa-2,8-diaza-1(5,3)-pyrazolo[1,5-a]pyrimidin-4(3,2)-pyridinacyclononaphan-1^6-yl)phenyl) carbamate], the concentration for half-maximal inhibition (IC50) in experiment [1] is 5.1 nM; in experiment [5] it was 15.1 nM; in experiment [6], 76 nM; in experiment [2] it was over 10000 nM; in experiment [7] it was 3110 nM; in experiment [3], 5180 nM.
Consider `CC(C)OC(=O)Nc1ccc(-c2cn3ncc4c3nc2NCc2cc(F)cnc2O[C@@H](C)CNC4=O)cc1` [Compound 31, iso-propyl (4-((S, 1^3E, 1^4E)-4^5-fluoro-6-methyl-9-oxo-5-oxa-2,8-diaza-1(5,3)-pyrazolo[1,5-a]pyrimidin-4(3,2)-pyridinacyclononaphan-1^6-yl)phenyl)carbamate], for which the IC50 in experiment [1] is 4.05 nM; in experiment [5] it was 12.3 nM; in experiment [2], over 10000 nM; in experiment [7] it was 843 nM; in experiment [3] it was over 10000 nM.
For the molecule `C[C@H]1CNC(=O)c2cnn3cc(-c4ccccn4)c(nc23)NCc2cc(F)cnc2O1` [Compound 33], the IC50 in experiment [1] is 407 nM; in experiment [7], 196 nM; in experiment [3] it was over 10000 nM.
On the same counts, the results for `C[C@H]1CNC(=O)c2cnn3cc(-c4ccc(N5CCOC5=O)cc4Cl)c(nc23)NCc2cc(F)cnc2O1` [Compound 40, (S, 1^3E, 1^4E)-1^6-(2-chloro-4-(2-oxaoxazolidin-3-yl)phenyl)-4^5-fluoro-6-methyl-5-oxa-2,8-diaza-1(5,3)-pyrazolo[1,5-a]pyrimidin-4(3,2)-pyridinacyclononaphan-9-one] are 465 nM, 105 nM and 176 nM.
On to `CNc1ccc(-c2c3nc4c(cnn4c2N)C(=O)NC[C@H](C)Oc2ncc(F)cc2CN3)cc1` [Example 54, (S, 1^3E, 1^4E)-1^7-amino-4^5-fluoro-6-methyl-1^6-(4-(methylamino)phenyl)-5-oxo-2,8-diaza-1(5,3)-pyrazolo[1,5-a]pyrimidin-4(3,2)-pyridinacyclononaphan-9-one], for which the IC50 is 105 nM in experiment [1]; over 1000 nM in experiment [5]; over 1000 nM in experiment [6]; 2.1 nM in experiment [7]; 48 nM in experiment [3]; 104 nM in experiment [4].
Regarding `Cc1ccc(-c2c3nc4c(cnn4c2N)C(=O)NC[C@H](C)Oc2ncc(F)cc2CN3)cc1` [Example 56], the half-inhibitory concentration (IC50) is 1.2 nM in experiment [1]; 49.7 nM in experiment [5]; 0.13 nM in experiment [7]; 1.5 nM in experiment [3]; 0.96 nM in experiment [4].
Turning to `C[C@H]1CNC(=O)c2cnn3c(N)c(-c4ccc(NC(=O)OCC5CC5)cc4)c(nc23)NCc2cc(F)cnc2O1` [Example 63, cyclopropylmethyl (4-((S, 1^3E, 1^4E)-1^7-amino-4^5-fluoro-6-methyl-9-oxo-5-oxo-2,8-diaza-1(5,3)-pyrazolo[1,5-a]pyrimidin-4(3,2)-pyridinacyclononaphan-1^6-yl)phenyl)carbamate], the IC50 in experiment [1] stood at 1.2 nM; in experiment [5], 22 nM; in experiment [6] it was 3.5 nM; in experiment [2] it was 65 nM; in experiment [7], 2.8 nM; in experiment [3], 33 nM.
As for `CNc1c(-c2ccccc2)c2nc3c(cnn13)C(=O)NC[C@H](C)Oc1ncc(F)cc1CN2` [Example 64, (S, 1^3E, 1^4E)-4^5-fluoro-6-methyl-1^7-(methylamino)-1^6-phenyl-5-oxa-2,8-diaza-1(5,3)-pyrazolopyrimidin-4(3,2)-pyridinacyclononaphan-9-one], the figures for the IC50 in experiment [1], in experiment [7] and in experiment [3] were 128 nM, 61 nM and over 1000 nM, respectively.
For `C[C@H]1CNC(=O)c2cnn3c(N)c(-c4ccccc4F)c(nc23)NCc2cc(F)cnc2O1` [Example 66], the IC50 in experiment [1] was found to be 1.3 nM; in experiment [5], 53.7 nM; in experiment [2], 101 nM; in experiment [3], 1.7 nM; in experiment [4], 1.45 nM.

Usually IC50 stands for the point on the concentration scale where inhibition reaches its midpoint.
